The record followed here is PubChem BioAssay (NCI).

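Cells were grown in 96-well plates and exposed to each compound for 48 hours at five concentrations; endpoints were interpolated linearly between bracketing concentrations, or set to the highest concentration if not reached. TGI is the concentration that stops growth completely.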

Among the test systems are HCC-2998 colon; MDA-MB-435; SF-539 CNS; UACC-62 melanoma; TK-10 renal; SK-MEL-28 melanoma; SNB-19 CNS; SW-620 colon; RXF 393 renal; SF-295 CNS; SR leukemia; SNB-75 CNS; NCI-H23 lung; MDA-N.
Common to all, as to assay: DTP human tumour cell line panel, 48 h

As for `CC(=O)OCC(=O)O[C@@H]1[C@H]2[C@@H](OC(=O)c3ccccc3)[C@@H](C)C[C@]2(O)[C@H](OC(C)=O)[C@@]2(C)C(OC(C)=O)[C@]1(OC(C)=O)C[C@H]1C(=O)C(C)(C)C[C@@H]12` (some centres undefined), the total growth inhibition concentration (TGI) in the test on HCC-2998 colon, in the test with MDA-MB-435, in the test on SF-539 CNS, in the test on UACC-62 melanoma, in the test with TK-10 renal and in the test with SK-MEL-28 melanoma was > 50 µM each time. The total growth inhibition concentration (TGI) in the test on SNB-19 CNS, in the test with SW-620 colon, in the test on RXF 393 renal, with SF-295 CNS, with SR leukemia and in the test with SNB-75 CNS was > 50 µM each time. In addition, the TGI with NCI-H23 lung and in the test with MDA-N was > 50 µM each time.
Turning to `CCCCCCCC1(N=[N+]=[N-])C(=O)Nc2ccccc2C1=O` (centres undefined), the TGI – broadly, the concentration giving total growth inhibition – in the test with HCC-2998 colon came out at 39.9 µM; with MDA-MB-435, 34.2 µM; with SF-539 CNS, 29.6 µM; with UACC-62 melanoma, 23.8 µM; in the test with TK-10 renal, 31 µM; with SK-MEL-28 melanoma it was 30.7 µM. Also, the concentration for total growth inhibition (TGI) with SNB-19 CNS came out at 32.4 µM; with SW-620 colon it was 26.4 µM; in the test with RXF 393 renal, 25.1 µM; in the test on SF-295 CNS, 36.2 µM; in the test with SR leukemia it was 90 µM; in the test with SNB-75 CNS, 27.1 µM. The concentration for total growth inhibition (TGI) in the test on NCI-H23 lung was 40.5 µM; in the test on MDA-N it was 37.8 µM.
Take `CCOC(=O)c1nc2cc(C(F)(F)F)ccc2nc1Nc1ccc(OC)cc1`: the TGI in the test on HCC-2998 colon, with MDA-MB-435, in the test with SF-539 CNS, in the test with UACC-62 melanoma, in the test on TK-10 renal and in the test with SK-MEL-28 melanoma was > 100 µM each time. The total growth inhibition concentration (TGI) in the test on SNB-19 CNS, in the test on SW-620 colon, with RXF 393 renal, with SF-295 CNS, in the test on SR leukemia and with SNB-75 CNS was > 100 µM in each case. Moreover, the TGI in the test with NCI-H23 lung and in the test on MDA-N was > 100 µM in each case.
For the compound `CCOC(=O)C1(C(=O)OCC)[C@@H](c2ccccc2)C2=NO[C@@H]3CCC[C@H]1[C@H]23`, the TGI in the test on HCC-2998 colon was 50.2 µM; in the test on MDA-MB-435, 53.6 µM; with SF-539 CNS, > 100 µM; in the test with UACC-62 melanoma, > 100 µM; in the test with TK-10 renal, > 100 µM; with SK-MEL-28 melanoma it was > 100 µM. Besides, the total growth inhibition concentration (TGI) in the test on SNB-19 CNS, in the test on SW-620 colon, in the test on RXF 393 renal, with SF-295 CNS, with SR leukemia and with SNB-75 CNS was > 100 µM each time. Also, the TGI was > 100 µM in the test with NCI-H23 lung and 64.6 µM in the test on MDA-N.
For the compound `O=[N+]([O-])c1ccc(C(=S)Nc2ccccc2)o1`, the total growth inhibition concentration (TGI) in the test on HCC-2998 colon stood at 3.17 µM; in the test with MDA-MB-435, 7.63 µM; in the test with SF-539 CNS, 4.58 µM; in the test on UACC-62 melanoma it was 11.4 µM; in the test on TK-10 renal, 14.1 µM; in the test on SK-MEL-28 melanoma, 19.3 µM. The TGI in the test on SNB-19 CNS worked out at 17.3 µM; with SW-620 colon, 3.82 µM; in the test with RXF 393 renal it was 15.2 µM; in the test with SF-295 CNS, 15.5 µM; in the test with SR leukemia it was 10 µM; in the test with SNB-75 CNS it was 30.4 µM. The concentration for total growth inhibition (TGI) in the test on NCI-H23 lung worked out at 12.4 µM; in the test with MDA-N it was 9.53 µM.
Consider `c1cc2nnc1SCCCSc1ccc(nn1)SCCCS2`, for which the concentration for total growth inhibition (TGI) with HCC-2998 colon is 99.5 µM; in the test on MDA-MB-435, > 100 µM; in the test on SF-539 CNS, > 93.9 µM; with UACC-62 melanoma it was > 77.6 µM; in the test on TK-10 renal, 98.8 µM; in the test on SK-MEL-28 melanoma it was > 100 µM. Also, the TGI with SNB-19 CNS was > 93.2 µM; in the test with SW-620 colon, > 100 µM; in the test with RXF 393 renal, 75.5 µM; with SF-295 CNS, > 100 µM; with SR leukemia, > 100 µM; in the test with SNB-75 CNS, > 56.6 µM. The total growth inhibition concentration (TGI) in the test with NCI-H23 lung and in the test on MDA-N was > 100 µM each time.
On to `Oc1[nH]c2ccccc2c1N=NC(=S)Nc1ccccc1Cl`, for which the total growth inhibition concentration (TGI) was > 100 µM in the test on HCC-2998 colon; 57.5 µM in the test with MDA-MB-435; 7.86 µM in the test with SF-539 CNS; 20.6 µM with UACC-62 melanoma; 10.3 µM with TK-10 renal; 75.6 µM with SK-MEL-28 melanoma. Moreover, the TGI in the test on SNB-19 CNS is > 100 µM; in the test with SW-620 colon, 40.3 µM; in the test with RXF 393 renal it was 31.4 µM; in the test on SF-295 CNS, 20.9 µM; in the test with SR leukemia, 1.16 µM; in the test on SNB-75 CNS, 16.1 µM. For the same compound, the TGI was 33.5 µM in the test on NCI-H23 lung and > 100 µM in the test on MDA-N.
On to `Cc1cn(CCCCC2=NCCCN2)c(=O)[nH]c1=O`, for which the concentration for total growth inhibition (TGI) with HCC-2998 colon is > 32.9 µM; in the test with MDA-MB-435, > 33.8 µM; in the test with SF-539 CNS, > 22 µM; in the test with UACC-62 melanoma, > 59.1 µM; in the test on TK-10 renal it was > 36.6 µM; with SK-MEL-28 melanoma, > 32.9 µM. Further, the concentration for total growth inhibition (TGI) is > 66.2 µM in the test with SNB-19 CNS; > 37 µM in the test with SW-620 colon; > 32.6 µM in the test on RXF 393 renal; > 65.5 µM in the test on SF-295 CNS; > 41 µM in the test on SR leukemia; > 28.6 µM in the test with SNB-75 CNS. The TGI is > 44.3 µM with NCI-H23 lung and > 100 µM in the test on MDA-N.
For the compound `COC(=O)[C@]1(NC(=O)c2ccccc2)C[C@H]1C=O`, the TGI with HCC-2998 colon, in the test on MDA-MB-435, with SF-539 CNS, in the test on UACC-62 melanoma, in the test on TK-10 renal and in the test on SK-MEL-28 melanoma was > 100 µM each time. Moreover, the total growth inhibition concentration (TGI) in the test with SNB-19 CNS is > 100 µM; with SW-620 colon, > 100 µM; in the test on RXF 393 renal, > 100 µM; in the test with SF-295 CNS, > 100 µM; with SR leukemia it was 53.9 µM; in the test on SNB-75 CNS, > 100 µM. The total growth inhibition concentration (TGI) in the test with NCI-H23 lung and with MDA-N was > 100 µM throughout.
As to `Nc1ncnc2oc(C3OC(COC(=O)c4ccccc4)C(OC(=O)c4ccccc4)C3OC(=O)c3ccccc3)nc12` (centres undefined), the TGI with HCC-2998 colon, in the test on MDA-MB-435, in the test with SF-539 CNS, in the test on UACC-62 melanoma, with TK-10 renal and in the test with SK-MEL-28 melanoma was > 100 µM each time. Besides, the TGI in the test with SNB-19 CNS, in the test on SW-620 colon, in the test on RXF 393 renal, with SF-295 CNS, in the test with SR leukemia and with SNB-75 CNS was > 100 µM in each case. Also, the TGI in the test with NCI-H23 lung and in the test with MDA-N was > 100 µM each time.
Regarding `C=C1CC(c2ccc(OCCCN3C(=O)c4ccccc4C3=O)cc2)OC1=O` (centres undefined), the concentration for total growth inhibition (TGI) in the test with HCC-2998 colon is 16.8 µM; with MDA-MB-435, 9.2 µM; with SF-539 CNS, 0.827 µM; with UACC-62 melanoma, 4.75 µM; in the test on TK-10 renal, 14.5 µM; with SK-MEL-28 melanoma, 3.98 µM. The total growth inhibition concentration (TGI) in the test on SNB-19 CNS came to 25.5 µM; in the test with SW-620 colon, 2.99 µM; with RXF 393 renal it was 3.65 µM; in the test on SF-295 CNS, 25.5 µM; in the test with SR leukemia, 8.57 µM; in the test with SNB-75 CNS, 23.7 µM. The TGI in the test on NCI-H23 lung came to 9.34 µM; in the test with MDA-N, 10.7 µM.
